Tested on: 885512-296-R-J2-PDC complex spheroid growth, % test/control
Experiment: Anticancer human tumor 885512-296-R-J2-PDC patient-derived breast carcinoma cell line growth inhibition [Asc]
Settings: for IC50: curve of first compound; for viability, T/C: stronger effect = lower value
How it was run: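 Stromal components (HUVEC and hMSC) are co-assembled with the cancer cells into multicellular spheroids. Drugs are then added singly or paired, at concentrations falling by half-log increments from a clinically achievable maximum, capped at 10 microM without known Cmax.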
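Also: spheroids exposed to compounds for seven days.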
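For viability, T/C in this document: 100% = DMSO vehicle control wells.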

COc1c(OCCCN2CCOCC2)ccc2c3n(c(=NC(=O)c4cnc(N)nc4)nc12)CCN3 + Cc1c(S(C)(=O)=O)c(-c2cc(F)cc(N3CCN(c4ccc(NS(=O)(=O)c5ccc(NC(CCN6CCC(C(=O)OCCCP(=O)(O)O)CC6)CSc6ccccc6)c(S(=O)(=O)C(F)(F)F)c5)cc4)CC3)c2)c(-c2ccc(Cl)cc2)n1C(C)C
IC50 (second compound 0.1 µM): 263 nM
IC50 (second compound 0.316 µM): 255 nM
IC50 (second compound 1 µM): 238 nM
IC50 (second compound 3.16 µM): 224 nM
IC50 (second compound 10 µM): 247 nM
viability, T/C (second compound 0.1 µM, first compound 0.00316 µM): 95.2%
viability, T/C (second compound 0.1 µM, first compound 0.01 µM): 87.2%
viability, T/C (second compound 0.1 µM, first compound 0.0316 µM): 95.9%
viability, T/C (second compound 0.1 µM, first compound 0.1 µM): 69.3%
viability, T/C (second compound 0.1 µM, first compound 0.316 µM): 47%
viability, T/C (second compound 0.1 µM, first compound 1 µM): 4.94%
viability, T/C (second compound 0.316 µM, first compound 0.00316 µM): 91.2%
viability, T/C (second compound 0.316 µM, first compound 0.01 µM): 93.5%
viability, T/C (second compound 0.316 µM, first compound 0.0316 µM): 79.3%
viability, T/C (second compound 0.316 µM, first compound 0.1 µM): 79%
viability, T/C (second compound 0.316 µM, first compound 0.316 µM): 43.2%
viability, T/C (second compound 0.316 µM, first compound 1 µM): 5.3%
viability, T/C (second compound 1 µM, first compound 0.00316 µM): 98.8%
viability, T/C (second compound 1 µM, first compound 0.01 µM): 101%
viability, T/C (second compound 1 µM, first compound 0.0316 µM): 84%
viability, T/C (second compound 1 µM, first compound 0.1 µM): 70.2%
viability, T/C (second compound 1 µM, first compound 0.316 µM): 43.9%
viability, T/C (second compound 1 µM, first compound 1 µM): 5.16%
viability, T/C (second compound 3.16 µM, first compound 0.00316 µM): 92.4%
viability, T/C (second compound 3.16 µM, first compound 0.01 µM): 87.5%
viability, T/C (second compound 3.16 µM, first compound 0.0316 µM): 77.5%
viability, T/C (second compound 3.16 µM, first compound 0.1 µM): 73.5%
viability, T/C (second compound 3.16 µM, first compound 0.316 µM): 40%
viability, T/C (second compound 3.16 µM, first compound 1 µM): 5.34%
viability, T/C (second compound 10 µM, first compound 0.00316 µM): 117%
viability, T/C (second compound 10 µM, first compound 0.01 µM): 112%
viability, T/C (second compound 10 µM, first compound 0.0316 µM): 96.2%
viability, T/C (second compound 10 µM, first compound 0.1 µM): 81%
viability, T/C (second compound 10 µM, first compound 0.316 µM): 40.7%
viability, T/C (second compound 10 µM, first compound 1 µM): 4.02%
